Data on six compounds can be found in patent publication US9617267B2, “Compounds and methods for kinase modulation, and indications therefor” (Plexxikon Inc., priority 2009, dated 2017).

Series [1] addresses CYP3A4(BQ) (Homo sapiens (Human), UniProt P08684). In words: CYP enzyme inhibition, fluorescent substrate BQ. In outline:
(§1)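 IC50 values come from plotting product fluorescence against compound concentration; inhibition lowers formation of the fluorescent metabolite. Ten-point twofold dilutions in co-factor mix were held 10 minutes at 37 °C before the enzyme reaction, also run at 37 °C.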

The target in series [2] is B-Raf V600E (Homo sapiens (Human), UniProt P15056, V600E). Description: B-Raf V600E kinase activity biochemical assay (AlphaScreen, biotin-MEK1 phosphorylation). Particulars: for IC50: B-Raf V600E; for Biochemical activity ratio V600E/C: ratio of IC50 B-Raf V600E / c-Raf-1. A digest of the protocol: (§2)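 Biotin-MEK1 phosphorylation measured after 45 min kinase reaction at RT with 100 μM ATP final; compounds tested at 8 points from 0.1 mM DMSO stock.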
B-Raf V600E, sequence (P15056 whole entry V600E): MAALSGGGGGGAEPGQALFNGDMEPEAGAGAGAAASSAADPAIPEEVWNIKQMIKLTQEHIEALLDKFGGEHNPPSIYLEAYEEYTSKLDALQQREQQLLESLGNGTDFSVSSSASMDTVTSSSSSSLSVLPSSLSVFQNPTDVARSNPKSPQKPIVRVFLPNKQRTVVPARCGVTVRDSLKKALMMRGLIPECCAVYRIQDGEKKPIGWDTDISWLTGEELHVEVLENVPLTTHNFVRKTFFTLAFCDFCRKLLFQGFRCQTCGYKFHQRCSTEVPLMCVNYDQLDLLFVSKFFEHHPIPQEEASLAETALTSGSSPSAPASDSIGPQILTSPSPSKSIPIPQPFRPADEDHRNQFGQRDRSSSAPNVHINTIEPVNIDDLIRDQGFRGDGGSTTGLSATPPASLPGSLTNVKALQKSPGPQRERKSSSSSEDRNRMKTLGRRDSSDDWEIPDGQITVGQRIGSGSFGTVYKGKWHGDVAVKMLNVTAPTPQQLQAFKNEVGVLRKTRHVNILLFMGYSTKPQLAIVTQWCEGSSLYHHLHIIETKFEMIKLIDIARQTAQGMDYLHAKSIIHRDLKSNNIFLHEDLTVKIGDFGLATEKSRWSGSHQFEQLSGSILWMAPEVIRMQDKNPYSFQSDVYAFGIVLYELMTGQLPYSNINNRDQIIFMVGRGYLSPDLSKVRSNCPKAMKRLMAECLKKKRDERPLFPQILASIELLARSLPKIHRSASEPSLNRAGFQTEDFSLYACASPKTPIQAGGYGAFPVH
A general note: Alpha assays give light when donor and acceptor beads are brought close together.

Series [3] deals with c-Raf-1 (Homo sapiens, UniProt P04049). Description: c-Raf-1 kinase activity biochemical assay (AlphaScreen, biotin-MEK1 phosphorylation). A digest of the protocol:
as §2

The target of series [4] is CYP2C9 (Homo sapiens (Human), UniProt P11712). Description: CYP enzyme inhibition, fluorescent substrate (MFC). In outline: as §1
CYP2C9, sequence (P11712 whole entry): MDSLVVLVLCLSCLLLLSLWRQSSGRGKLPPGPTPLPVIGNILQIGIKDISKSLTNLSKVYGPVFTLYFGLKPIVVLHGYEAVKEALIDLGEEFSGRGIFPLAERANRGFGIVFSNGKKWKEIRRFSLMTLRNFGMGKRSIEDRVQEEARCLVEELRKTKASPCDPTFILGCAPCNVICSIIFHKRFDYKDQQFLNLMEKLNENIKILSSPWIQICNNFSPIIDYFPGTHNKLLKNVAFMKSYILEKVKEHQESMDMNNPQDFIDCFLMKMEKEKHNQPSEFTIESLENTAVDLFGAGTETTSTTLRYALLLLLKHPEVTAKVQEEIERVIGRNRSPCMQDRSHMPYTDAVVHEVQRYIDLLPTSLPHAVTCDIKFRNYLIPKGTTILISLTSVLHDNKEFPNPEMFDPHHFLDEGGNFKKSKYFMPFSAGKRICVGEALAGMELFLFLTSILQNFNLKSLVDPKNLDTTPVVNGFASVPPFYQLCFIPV
Series [5] deals with CYP2C19 (Homo sapiens (Human), UniProt P33261). In words: CYP enzyme inhibition, fluorescent substrate (CEC). A digest of the protocol: as §1
CYP2C19, sequence (P33261 whole entry): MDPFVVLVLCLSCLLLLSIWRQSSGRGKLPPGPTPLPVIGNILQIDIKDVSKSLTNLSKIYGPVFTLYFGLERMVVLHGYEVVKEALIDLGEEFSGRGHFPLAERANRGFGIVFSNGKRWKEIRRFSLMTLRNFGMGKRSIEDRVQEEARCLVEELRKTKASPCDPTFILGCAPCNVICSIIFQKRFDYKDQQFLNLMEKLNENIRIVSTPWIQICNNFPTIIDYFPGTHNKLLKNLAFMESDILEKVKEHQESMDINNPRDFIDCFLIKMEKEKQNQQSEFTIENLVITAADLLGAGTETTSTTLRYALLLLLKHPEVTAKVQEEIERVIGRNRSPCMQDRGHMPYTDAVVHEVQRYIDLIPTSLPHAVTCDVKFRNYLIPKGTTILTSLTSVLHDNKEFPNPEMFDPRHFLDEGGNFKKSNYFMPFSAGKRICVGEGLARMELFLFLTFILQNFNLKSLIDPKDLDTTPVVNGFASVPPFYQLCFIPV
Series [6] addresses CYP1A2 (Homo sapiens (Human), UniProt P05177). In words: CYP enzyme inhibition, fluorescent substrate (CEC). In outline: (§3)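 Ten-point 1:1 compound dilutions in NADPH-regenerating cofactor mix, pre-incubated 10 min at 37 °C before enzyme/substrate addition: CYP1A2 0.5 pmol with 5 μM CEC, 15 min, 409 ex/460 em; CYP2D6 1.5 pmol with 1.5 μM AMMC, 30 min, 409 ex/530 em. IC50 from fluorescent product vs concentration.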

Series [7] is described as follows: Relative solubility by turbidity threshold concentration in aqueous buffers (pH 1.5, 4.5, 6.8, 7.4). Format: physicochemical. The settings on record: for turbidity threshold (L, M, H) 1.4: pH 1.4 [sic] (method: SGF pH 1.5); for turbidity threshold (L, M, H) 4.5: pH 4.5 (SIF); for turbidity threshold (L, M, H) 6.8: pH 6.8 (SIF); for turbidity threshold (L, M, H) 7.4: pH 7.4 (HEPES). In outline:
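Solubility class (high >250 μM, moderate 31.3–250 μM, low <31.3 μM) comes from the concentration where absorbance reaches a 0.01 threshold, averaged across 490/535/650 nm. Samples were compound dilutions from DMSO stock, 1 μL into 99 μL buffer at pH 1.5, 4.5, 6.8 or 7.4.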

Series [8] addresses CYP2D6 (Homo sapiens (Human), UniProt P10635). In words: CYP enzyme inhibition, fluorescent substrate (AMMC). Type of series: in vitro ADME. The settings on record: read-out: Cyp IC50 2D6. A digest of the protocol:
as §3

Series [9] concerns the target CYP3A4(BFC) (Homo sapiens (Human), UniProt P08684). Description: CYP enzyme inhibition, fluorescent substrate BFC. In outline:
as §1

For series [10], the target named is B-Raf (Homo sapiens (Human), UniProt P15056). In words: B-Raf kinase activity biochemical assay (AlphaScreen, biotin-MEK1 phosphorylation). The settings on record: B-Raf. A digest of the protocol:
as §2

Series [11] concerns B-Raf. The description is as above. Particulars: for Biochemical activity ratio B/V600E: ratio of IC50 B-Raf / B-Raf V600E; for Biochemical activity ratio B/C: ratio of IC50 B-Raf / c-Raf-1. In outline: as §2
Where [12] appears, read: read-out: Cyp IC50 3A4(BQ), CYP3A4, substrate BQ.
Setting [13] is: read-out: Cyp IC50 2C9, CYP2C9, substrate MFC.
The mark [14] stands for this setting: read-out: Cyp IC50 2C19, CYP2C19, substrate CEC.
Setting [15] is: read-out: Cyp IC50 3A4(BFC), CYP3A4, substrate BFC.
[16] abbreviates: read-out: Cyp IC50 1A2, CYP1A2, substrate CEC.

As a reminder, the pIC50 is −log10 of the IC50, conventionally taken in molar units. The IC50 is the point on the concentration scale where inhibition reaches its midpoint.

pIC50: −log10 of the molar value. Where two headings read alike, the source gives them in different places.

CYP2D6, sequence (P10635 whole entry): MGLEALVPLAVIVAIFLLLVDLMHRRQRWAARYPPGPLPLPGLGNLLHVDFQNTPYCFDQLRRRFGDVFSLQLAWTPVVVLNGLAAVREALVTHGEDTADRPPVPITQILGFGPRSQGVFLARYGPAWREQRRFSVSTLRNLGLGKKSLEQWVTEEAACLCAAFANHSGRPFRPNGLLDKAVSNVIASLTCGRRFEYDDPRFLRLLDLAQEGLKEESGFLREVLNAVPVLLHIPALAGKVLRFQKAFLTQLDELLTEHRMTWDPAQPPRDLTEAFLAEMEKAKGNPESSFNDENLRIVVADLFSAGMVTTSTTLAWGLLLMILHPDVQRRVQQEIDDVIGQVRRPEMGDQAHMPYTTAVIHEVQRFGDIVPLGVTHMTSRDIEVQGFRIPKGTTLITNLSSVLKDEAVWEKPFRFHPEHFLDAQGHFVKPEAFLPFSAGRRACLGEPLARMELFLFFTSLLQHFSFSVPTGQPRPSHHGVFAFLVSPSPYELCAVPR
c-Raf-1, sequence (P04049 whole entry, looked up): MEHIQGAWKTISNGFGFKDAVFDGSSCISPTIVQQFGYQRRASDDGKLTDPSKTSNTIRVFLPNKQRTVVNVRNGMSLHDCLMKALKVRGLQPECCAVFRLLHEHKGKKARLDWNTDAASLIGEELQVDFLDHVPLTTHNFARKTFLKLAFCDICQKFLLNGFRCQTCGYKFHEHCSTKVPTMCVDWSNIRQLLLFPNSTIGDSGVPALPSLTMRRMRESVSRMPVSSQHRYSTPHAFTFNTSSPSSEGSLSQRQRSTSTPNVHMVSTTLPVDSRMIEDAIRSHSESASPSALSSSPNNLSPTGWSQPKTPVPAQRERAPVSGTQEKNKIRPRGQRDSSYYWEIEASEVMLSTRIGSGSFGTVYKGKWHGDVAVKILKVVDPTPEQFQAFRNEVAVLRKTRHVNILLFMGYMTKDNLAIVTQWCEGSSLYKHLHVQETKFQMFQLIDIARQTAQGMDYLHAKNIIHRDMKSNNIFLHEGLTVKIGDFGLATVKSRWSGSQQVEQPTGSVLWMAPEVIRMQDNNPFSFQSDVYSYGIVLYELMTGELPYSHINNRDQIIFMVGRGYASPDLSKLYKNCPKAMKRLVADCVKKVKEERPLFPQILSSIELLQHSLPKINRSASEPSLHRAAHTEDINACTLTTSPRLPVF
CYP1A2, sequence (P05177 whole entry): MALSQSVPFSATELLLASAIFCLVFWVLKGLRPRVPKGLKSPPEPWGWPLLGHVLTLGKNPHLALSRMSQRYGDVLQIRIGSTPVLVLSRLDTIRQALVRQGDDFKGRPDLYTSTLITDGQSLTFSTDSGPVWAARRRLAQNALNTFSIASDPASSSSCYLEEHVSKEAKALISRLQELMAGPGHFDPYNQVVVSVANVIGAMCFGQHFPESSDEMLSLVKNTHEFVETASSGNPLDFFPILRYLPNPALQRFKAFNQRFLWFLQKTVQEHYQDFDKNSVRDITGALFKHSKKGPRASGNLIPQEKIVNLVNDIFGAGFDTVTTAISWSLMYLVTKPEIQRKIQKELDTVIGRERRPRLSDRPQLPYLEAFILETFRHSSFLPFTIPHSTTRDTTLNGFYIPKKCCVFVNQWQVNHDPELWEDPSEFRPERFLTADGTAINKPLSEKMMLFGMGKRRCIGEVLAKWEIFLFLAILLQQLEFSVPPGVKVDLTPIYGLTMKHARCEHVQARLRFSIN
B-Raf (Homo sapiens (Human), UniProt P15056), sequence (P15056 whole entry): as the sequence (P15056 whole entry V600E) above, with E600V counted along it
CYP3A4(BFC), sequence (P08684 whole entry): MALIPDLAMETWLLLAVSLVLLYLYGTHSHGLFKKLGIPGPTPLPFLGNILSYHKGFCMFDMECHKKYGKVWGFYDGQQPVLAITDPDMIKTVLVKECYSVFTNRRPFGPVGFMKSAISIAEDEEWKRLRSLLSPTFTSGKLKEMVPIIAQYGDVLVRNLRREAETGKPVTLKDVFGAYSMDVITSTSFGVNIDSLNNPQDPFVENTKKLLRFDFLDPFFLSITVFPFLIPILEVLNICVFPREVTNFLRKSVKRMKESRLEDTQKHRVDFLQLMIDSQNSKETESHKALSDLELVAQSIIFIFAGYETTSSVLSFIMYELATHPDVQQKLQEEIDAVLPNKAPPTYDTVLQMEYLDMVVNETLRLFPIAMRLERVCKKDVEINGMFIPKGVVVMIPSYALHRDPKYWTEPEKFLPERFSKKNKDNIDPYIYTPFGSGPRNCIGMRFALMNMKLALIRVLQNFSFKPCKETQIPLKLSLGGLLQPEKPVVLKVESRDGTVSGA
CYP3A4(BQ), sequence (P08684 whole entry): as above

As to `CCCS(=O)(=O)Nc1ccc(F)c(C(=O)c2c[nH]c3ncnc(NC4COC4)c23)c1F` [P-1060, Propane-1-sulfonic acid {2,4-difluoro-3-[4-(oxetan-3-ylamino)-7H-pyrrolo[2,3-d]pyrimidine-5-carbonyl]-phenyl}-amide], the pIC50 in [1] (setting [12]) is below 5.00; in series [4] (setting [13]), below 5.00; in series [5] (setting [14]), below 5.00; in series [6] (human, 15 min), below 5.00; in series [8] it was below 5.00; in series [9] (setting [15]), below 5.00. Moreover, the IC50 in series [2], in series [3] and in series [10] was below 0.1 µM in each case. The “Biochemical activity ratio V600E/C” value in [2] is recorded as 0.1-10. In addition, in series [7], the “turbidity threshold (L, M, H) 1.4” value is “H (high solubility if the threshold concentration is >250 μm)”. The “turbidity threshold (L, M, H) 4.5” value in [7] was “M (moderate solubility if the threshold concentration is 31.3 μM to 250 μM)”. In addition, the “turbidity threshold (L, M, H) 6.8” value in [7] was “H (high solubility if the threshold concentration is >250 μm)”. Moreover, the “turbidity threshold (L, M, H) 7.4” value in [7] is recorded as “H (high solubility if the threshold concentration is >250 μm)”. For the same compound, the “Biochemical activity ratio B/V600E” value in series [11] was 0.1-10. Besides, the “Biochemical activity ratio B/C” value in series [11] is above 10.

Consider `O=C(c1c(F)ccc(NS(=O)(=O)c2ccc(C(F)(F)F)cc2)c1F)c1c[nH]c2ncnc(N3CCCC3)c12` [P-1061, N-[2,4-Difluoro-3-(4-pyrrolidin-1-yl-7H-pyrrolo[2,3-d]pyrimidine-5-carbonyl)-phenyl]-4-trifluoromethyl-benzenesulfonamide], for which the pIC50 is below 5.00 in series [1] (setting [12]); below 5.00 in series [4] (setting [13]); below 5.00 in [5] (setting [14]); below 5.00 in [6] (human, 15 min); below 5.00 in series [8]; below 5.00 in series [9] (setting [15]). In addition, the IC50 in [2], in series [3] and in series [10] was above 0.1 µM throughout. Besides, in [2], the “Biochemical activity ratio V600E/C” value is above 10. Besides, the “turbidity threshold (L, M, H) 1.4” value in series [7] is given as “H (high solubility if the threshold concentration is >250 μm)”. In series [7], the “turbidity threshold (L, M, H) 4.5” value is on record as “M (moderate solubility if the threshold concentration is 31.3 μM to 250 μM)”. Also, the “turbidity threshold (L, M, H) 6.8” value in [7] was “M (moderate solubility if the threshold concentration is 31.3 μM to 250 μM)”. For the same compound, the “turbidity threshold (L, M, H) 7.4” value in series [7] is “H (high solubility if the threshold concentration is >250 μm)”. Further, in [11], the “Biochemical activity ratio B/V600E” value is listed as 0.1-10. For the same compound, in [11], the “Biochemical activity ratio B/C” value is reported as 0.1-10.

In the case of `COc1ncnc2[nH]cc(C(=O)c3c(F)ccc(NS(=O)(=O)c4ccc(C(C)C)cc4)c3F)c12` [P-1010, N-[2,4-Difluoro-3-(4-methoxy-7H-pyrrolo[2,3-d]pyrimidine-5-carbonyl)-phenyl]-4-isopropyl-benzenesulfonamide], the negative-log IC50 (pIC50) in series [1] (setting [12]) was below 5.00; in [4] it was 5.00 to 5.30; in series [5] it was 5.00 to 5.30; in series [6] (setting [16]) it was below 5.00; in series [8], below 5.00; in [9] (setting [15]), below 5.00. Besides, the half-maximal inhibitory concentration (IC50) in [2], in series [3] and in series [10] was above 0.1 µM in each case. For the same compound, the “Biochemical activity ratio V600E/C” value in series [2] is on record as above 10. Moreover, the “turbidity threshold (L, M, H) 1.4” value in series [7] is on record as “L (low solubility if the threshold concentration is <31.3 μM)”. Moreover, in series [7], the “turbidity threshold (L, M, H) 4.5” value is given as “L (low solubility if the threshold concentration is <31.3 μM)”. In addition, the “turbidity threshold (L, M, H) 6.8” value in series [7] is “L (low solubility if the threshold concentration is <31.3 μM)”. Also, the “turbidity threshold (L, M, H) 7.4” value in [7] is given as “M (moderate solubility if the threshold concentration is 31.3 μM to 250 μM)”. For the same compound, the “Biochemical activity ratio B/V600E” value in series [11] is on record as 0.1-10. For the same compound, the “Biochemical activity ratio B/C” value in series [11] was 0.1-10.

Consider `CCOc1ncnc2[nH]cc(C(=O)c3c(F)ccc(NS(=O)(=O)c4ccc(C(F)(F)F)cc4)c3F)c12` [P-1006, N-[3-(4-Ethoxy-7H-pyrrolo[2,3-d]pyrimidine-5-carbonyl)-2,4-difluoro-phenyl]-4-trifluoromethyl-benzenesulfonamide], for which the pIC50 is below 5.00 in series [1] (setting [12]); 5.00 to 5.30 in series [4]; below 5.00 in [5] (setting [14]); below 5.00 in [6] (setting [16]); below 5.00 in series [8]; above 5.30 in series [9] (setting [15]). Further, the IC50 in series [2] was above 0.1 µM; in [3], below 0.1 µM; in series [10], above 0.1 µM. In addition, the “Biochemical activity ratio V600E/C” value in series [2] is above 10. In addition, in series [7], the “turbidity threshold (L, M, H) 1.4” value is listed as “L (low solubility if the threshold concentration is <31.3 μM)”. The “turbidity threshold (L, M, H) 4.5” value in series [7] is recorded as “L (low solubility if the threshold concentration is <31.3 μM)”. The “turbidity threshold (L, M, H) 6.8” value in series [7] was “L (low solubility if the threshold concentration is <31.3 μM)”. In addition, the “turbidity threshold (L, M, H) 7.4” value in series [7] was “H (high solubility if the threshold concentration is >250 μm)”. For the same compound, the “Biochemical activity ratio B/V600E” value in series [11] was 0.1-10. Also, in [11], the “Biochemical activity ratio B/C” value is recorded as 0.1-10.

`N#Cc1c(F)cnc2[nH]cc(C(=O)c3c(F)ccc(NS(=O)(=O)c4ccc(C(F)(F)F)cc4)c3F)c12` [P-2009, N-[3-(4-Cyano-5-fluoro-1H-pyrrolo[2,3-b]pyridine-3-carbonyl)-2,4-difluoro-phenyl]-4-trifluoromethyl-benzenesulfonamide]: the pIC50 in [1], in series [4], in series [5], in series [6], in series [8] and in [9] was below 5.00 each time. Also, the IC50 in series [2] was above 0.1 µM; in series [3], below 0.1 µM; in [10] it was below 0.1 µM. Further, the “Biochemical activity ratio V600E/C” value in series [2] was above 10. Besides, in series [7], the “turbidity threshold (L, M, H) 1.4” value was “L (low solubility if the threshold concentration is <31.3 μM)”. In series [7], the “turbidity threshold (L, M, H) 4.5” value is “M (moderate solubility if the threshold concentration is 31.3 μM to 250 μM)”. In series [7], the “turbidity threshold (L, M, H) 6.8” value is “M (moderate solubility if the threshold concentration is 31.3 μM to 250 μM)”. Besides, the “turbidity threshold (L, M, H) 7.4” value in series [7] is “M (moderate solubility if the threshold concentration is 31.3 μM to 250 μM)”. Besides, in series [11], the “Biochemical activity ratio B/V600E” value is on record as 0.1-10. Further, the “Biochemical activity ratio B/C” value in series [11] was above 10.

For the compound `Cc1ncnc2[nH]cc(C(=O)c3c(F)ccc(NS(=O)(=O)c4ccc(C(F)(F)F)cc4)c3F)c12` [P-1001, N-[2,4-Difluoro-3-(4-methyl-7H-pyrrolo[2,3-d]pyrimidine-5-carbonyl)-phenyl]-4-trifluoromethyl-benzenesulfonamide], the pIC50 in [1] (setting [12]) is below 5.00; in series [4] (setting [13]), below 5.00; in series [5] (setting [14]) it was below 5.00; in series [6] (human, 15 min) it was below 5.00; in series [8], below 5.00; in series [9] (setting [15]), above 5.30. In addition, the IC50 in series [2] was above 0.1 µM; in series [3], below 0.1 µM; in series [10] it was below 0.1 µM. The “Biochemical activity ratio V600E/C” value in series [2] is given as above 10. Moreover, in series [7], the “turbidity threshold (L, M, H) 1.4” value is “H (high solubility if the threshold concentration is >250 μm)”. The “turbidity threshold (L, M, H) 4.5” value in series [7] is “M (moderate solubility if the threshold concentration is 31.3 μM to 250 μM)”. The “turbidity threshold (L, M, H) 6.8” value in [7] is recorded as “M (moderate solubility if the threshold concentration is 31.3 μM to 250 μM)”. The “turbidity threshold (L, M, H) 7.4” value in series [7] is “M (moderate solubility if the threshold concentration is 31.3 μM to 250 μM)”. Also, in [11], the “Biochemical activity ratio B/V600E” value is 0.1-10. Besides, the “Biochemical activity ratio B/C” value in series [11] is on record as 0.1-10.
